Assay results as given in ChEMBL document CHEMBL1128435, “Synthesis of carbon-11-, fluorine-18-, and iodine-125-labeled GABAA-gated chloride ion channel blockers: substituted 5-tert-butyl-2-phenyl-1,3-dithianes and -dithiane oxides” (J Med Chem, 1995).

What was measured:
[1] = Partition coefficient (logP); format: physicochemical; conditions: octanol/water
[2] = molecular target: GABA-A receptor; anion channel; assay: In vitro displacement of [3H]TBOB from Gamma-aminobutyric acid A (GABA-A) receptor of rat brain

logP [1]	Ki [2] [nM]	SMILES
4.97		CC(C)(C)C1CSC(c2ccc(F)cc2)SC1 (stereo unspecified)
0.43	180	CC(C)(C)C1CS(=O)(=O)C(c2ccc(F)cc2)S(=O)(=O)C1 (stereo unspecified)
4.38	240	CC(C)(C)C1CSC(c2ccc(C#N)cc2)SC1 (stereo unspecified)
4.96	85	C#Cc1ccc(C2SCC(C(C)(C)C)CS2)cc1 (stereo unspecified)
6.5	1900	CC1(c2ccc(I)cc2)SCC(C(C)(C)C)CS1 (stereo unspecified)

The next lines start with the compound.

SMILES	logP [1]	Ki [2] [nM]
CC(C)(C)C1CS(=O)(=O)C(C)(c2ccc(I)cc2)S(=O)(=O)C1 (stereo unspecified)	1.95	105
CC1(c2ccc(C#N)cc2)SCC(C(C)(C)C)CS1 (stereo unspecified)	4.89	
CC(C)(C)C1CS(=O)(=O)C(C)(c2ccc(C#N)cc2)S(=O)(=O)C1 (stereo unspecified)	0.351	87
CC(C)(C)[C@H]1CS(=O)(=O)[C@@](C)(c2ccc(C#N)cc2)S(=O)(=O)C1 (stereo in doubt; 9a)		200
CC(C)(C)[C@H]1CS(=O)(=O)[C@@](C)(c2ccc(C#N)cc2)S(=O)(=O)C1 (stereo in doubt; 9b)		41
